# Source: US8637050B2, “Peptide vaccines against group A streptococci” (The United States of America, as represented by the …, priority 2001, dated 2014)
# Test system: rabbit sera prepared against whole M protein
# Assay: ELISA: peptide recognition by anti-M protein rabbit sera
# Assay type: binding
# Procedure: Overlapping peptides representing each M type were assessed for their immunogenicity using ELISA and dot-immunoblot.
# Levels of anti-M protein antibodies in mouse sera were determined by an enzyme-linked immunosorbent assay (ELISA) using either synthetic peptides or whole M protein as antigen. Microtiter plates (DYNEX Immulon 2 HB) were coated with 10 μg/ml antigen in 10 mM phosphate-buffered saline (PBS) at 4° C. overnight. Plates were rinsed three times with wash buffer (0.05% Tween 20 in 10 mM PBS, pH 7.2) and blocked with 1% BSA in PBS for one hour at 37° C. The appropriate test sera were applied at a starting dilution of 1:1000 and serially diluted two fold down the plate in PBS. Plates were incubated at 37° C. for 30 minutes and subsequently rinsed three times. Goat anti-rabbit or goat anti-mouse Ig-peroxidase conjugate diluted 1:10,000 in PBS was added to all wells and incubated for two hours at 37° C. Plates were rinsed three times with wash buffer and freshly prepared TMB peroxidase (Kirkegaard and Perry Laboratories) was added. Reactions were quenched with 0.18 M H2SO4 after 30 minutes at room temperature and OD450 was measured with a Labsystems Multiskan plate reader using Ascent software. ELISA titers are expressed as the reciprocal of the last dilution which gave a reading OD450>0.10.
# The immunoreactivity of several synthetic peptides was determined by ELISA using rabbit sera prepared against whole M protein. The synthetic peptides are representative of relatively small portions of the M protein N-terminus; therefore, it was advantageous to determine if the epitopes contained within particular peptides were immunoreactive with sera prepared against whole M protein. It was shown that the whole anti-M protein rabbit sera of the respective serotypes could bind to each of the synthetic peptides within that serotype. However, some peptides were more highly immunoreactive than others, thus being better suited for use in the animal studies.
row,Sequence,immunoreactivity by ELISA using rabbit sera prepared against whole M protein
1,CAAPLTRATADNKDELIKRAND [Peptide M18-1],confirmed
2,CADHPSYTAAKDEVLSKFSVPGH [Peptide M101-1],confirmed
3,CAEIKKPQADSAWNWPKEYNA [Peptide M4-1],confirmed
4,CAELYNKIQELEEGKAELFDK [st2967-6],confirmed
5,CAESPKSTETSANGADKLAD [Peptide M28-1],confirmed
6,CAGQSAPKGTNVSADLYNSLWDE [Peptide M11-1],confirmed
7,CDAEQNRANELEKKLSGYEKD [Peptide M82-4],confirmed
8,CDDRSVSTNSGSVSTPYNNLLNE [Peptide M92-1],confirmed
9,CDENKTLREKQEEYITKIQNE [Peptide M11-3],confirmed
10,CDKLADAYNTLLTEHEKLRDE [Peptide M28-3],confirmed
11,CDKLRLEKEELKTDLQKKERE [Peptide M101-4],confirmed
12,CDLEEEREKLLNKLDKVEEEHKKD [Peptide M77-3],confirmed
13,CDLEEERGKLLNKLDKVEEEHK [Peptide M77-4],confirmed
14,CDLLAKHGELLSEYDALKEKQDK [Peptide M92-4],confirmed
15,CDNINRSVSVKDNEKELHNKIAD [Peptide M89-2],confirmed
16,CDNQSPALVKKEAKKLNEAEL [Peptide M73-4],confirmed
17,CDNQSPAPAPVKKEAKKLNEAE [Peptide M73-5],confirmed
18,CDNQSPAPVKKEAKKLNEAE [Peptide M73-1],confirmed
19,CDPQRAKEALDKYELENHDLK [Peptide M5-2],confirmed
20,CDSAWNWPKEYNALLKENEEL [Peptide M4-2],confirmed
21,CDSDNINRFVSVKDNEKELHN [Peptide M89-6],confirmed
22,CDSDNINRSVSVKDNEKELHNK [Peptide M89-1],confirmed
23,CDSDNSDNINRSVSVKDNEKE [Peptide M89-7],confirmed
24,CDSSRDSSREVTNELTASMWK [Peptide M58-5],confirmed
25,CDSSREVTNELAASMWKAQAD [Peptide M58-4],confirmed
26,CDSSREVTNELTASMWKAQAD [Peptide M58-1],confirmed

row,Sequence,immunoreactivity by ELISA using rabbit sera prepared against whole M protein
1,CDSSSRDITEAGVSKFWKSKFD [Peptide M82-1],confirmed
2,CDVLNNTPHNQLRDAYAGAFRR [Peptide M41-4],confirmed
3,CEAGVSKFWKSKFDAEQNRANE [Peptide M82-3],confirmed
4,CEEASNNGQLTLQHKNNALTSE [Peptide M94-1],confirmed
5,CEEERTFTELPYEARYKAWKSE [Peptide M75-1],confirmed
6,CEEHEKVTQAREAVIREMQQR [Peptide M33-1],confirmed
7,CEEHPDVVAARESVLNNVR [Peptide M43-1],confirmed
8,CEELKVEREKYLSYADDKEKDPQ [Peptide M4-4],confirmed
9,CEGNARLAQAQEEALRDVLNN [Peptide M41-1],confirmed
10,CEGVSVGSDASLHNRITDLEEEREK [Peptide M77-1],confirmed
11,CEIQNHQLTVENKKLKTDKEQ [Peptide M18-3],confirmed
12,CEKLREELQQYYALSDAKEEE [Peptide M22-6],confirmed
13,CELFEKLDKVEEEHKKVEEEHKK [Peptide M2-4],confirmed
14,CELHDKIKNLEEEKAELFEKLD [Peptide M2-3],confirmed
15,CELHNEIADLEEERGEHLDKID [Peptide M89-4],confirmed
16,CELHNKIADLEEERGAHLDKID [Peptide M89-5],confirmed
17,CELPYEARYKAWKSENDELREN [Peptide M75-2],confirmed
18,CELTLQQKYDALTNENKSLRRE [Peptide M59-2],confirmed
19,CELYNKIQELEEGKAELFDKLEK [Peptide M73-3],confirmed
20,CEMQQRGTNFGPLLASTMRDNH [Peptide M33-3],confirmed
21,CENHDLKTKNEGLKTENEGLK [Peptide M5-3],confirmed
22,CENPDKARELLNKYDVENSMLQ [Peptide M6-3],confirmed
23,CENSMLQANNDNLTDQNKNLTD [Peptide M6-4],confirmed
24,CEQAKNNNGELTLQQKYDALT [Peptide M59-1],confirmed
25,CESKLINTLTDENEKLREELQQ [Peptide M22-3],confirmed
26,CESLRREKDRYLYEKEELEKK [Peptide M94-3],confirmed

row,Sequence,immunoreactivity by ELISA using rabbit sera prepared against whole M protein
1,CESSNISQESKLINTLTDENEK [Peptide M22-2],confirmed
2,CESSNNAESSNISQESKLINT [Peptide M22-1],confirmed
3,CEYDDLLAKHGELLSEYDALK [Peptide M92-3],confirmed
4,CHDLKTKNEGLKTENEGLKTEN [Peptide M5-9],confirmed
5,CHEKVTQAREAVIREMQQRGT [Peptide M33-2],confirmed
6,CHEREKNDKLSSENEGLK [Peptide M101-3],confirmed
7,CHPDVVAARESVLNNVRVPGT [Peptide M43-2],confirmed
8,CIRLRHHENKDLKARLENAMEV [Peptide M1-8],confirmed
9,CIRNIRLRHENKDLKARLENA [Peptide M1-5],confirmed
10,CKAKELEKQVEEYKKNYETLEK [Peptide M58-3],confirmed
11,CKAWKSENDELRENYRKTLDK [Peptide M75-4],confirmed
12,CKDELIKRKELTIIEIQNHQL [Peptide M18-5],confirmed
13,CKDEVLSKFSVPGHVWAHERE [Peptide M101-2],confirmed
14,CKENEELKVEREKYLSYADDK [Peptide M4-3],confirmed
15,CKFERLKQRSELYLHQYYDNK [Peptide M12-4],confirmed
16,CKFERLKRRSELYLQQYYDNK [Peptide M12-5],confirmed
17,CKGTNVSADLYNSLWDENKT [Peptide M11-2],confirmed
18,CKKEAKKLNEAELYNKIQELE [Peptide M73-2],confirmed
19,CKKEAKLSEAELHDKIKNLEEEK [Peptide M2-2],confirmed
20,CKKEATKLSEAELYNKIQELEE [st2967-3],confirmed
21,CKNDKLSSENEGLKAGLQEKE [Peptide M101-5],confirmed
22,CKQRSELYLQQYYDNKSNRYK [Peptide M12-6],confirmed
23,CKSTETSANGADKLADAYNTL [Peptide M28-2],confirmed
24,CLAQVTQLYTKHNSNYQQYNA [Peptide M3-7],confirmed
25,CLDQVTQLYTKHNSNYQQYNA [Peptide M3-3],confirmed
